Source: US8685970B2, “Quinolines and related analogs as sirtuin modulators” (GlaxoSmithKline, LLC, priority 2008, dated 2014)

Molecular target: T1, SIRT1 (Homo sapiens, UniProt Q96EB6)
T1 sequence (Q96EB6 1-747): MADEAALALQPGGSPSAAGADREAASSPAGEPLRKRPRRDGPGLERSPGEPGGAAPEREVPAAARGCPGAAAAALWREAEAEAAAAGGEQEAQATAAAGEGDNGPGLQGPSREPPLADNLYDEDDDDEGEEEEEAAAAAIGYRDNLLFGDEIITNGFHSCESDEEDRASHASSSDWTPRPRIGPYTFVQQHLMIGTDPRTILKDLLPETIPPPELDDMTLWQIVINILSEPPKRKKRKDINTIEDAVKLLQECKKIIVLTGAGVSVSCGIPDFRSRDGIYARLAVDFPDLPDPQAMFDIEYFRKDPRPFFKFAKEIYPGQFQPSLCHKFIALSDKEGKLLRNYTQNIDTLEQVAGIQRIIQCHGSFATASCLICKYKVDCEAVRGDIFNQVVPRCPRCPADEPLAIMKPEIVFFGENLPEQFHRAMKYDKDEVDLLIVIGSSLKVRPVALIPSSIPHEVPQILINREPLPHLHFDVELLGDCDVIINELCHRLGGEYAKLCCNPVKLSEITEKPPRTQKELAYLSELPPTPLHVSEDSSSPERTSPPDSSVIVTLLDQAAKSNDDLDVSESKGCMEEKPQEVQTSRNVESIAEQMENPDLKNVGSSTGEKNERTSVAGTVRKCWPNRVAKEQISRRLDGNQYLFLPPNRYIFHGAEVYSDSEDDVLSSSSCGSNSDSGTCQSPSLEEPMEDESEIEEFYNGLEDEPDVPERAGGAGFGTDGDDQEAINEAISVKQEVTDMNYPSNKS
Assay: Mass spectrometry based SIRT1 deacetylation assay (activation)
Type: biochemical
Conditions: 10 nM SIRT1, 0.5 μM peptide substrate, 120 μM βNAD+, 25 min at 25° C.
In short: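 Recombinant N-His-tagged SIRT1 (E. coli BL21(DE3)), 10 nM, incubated 25 min at 25 °C with 0.5 μM biotin/5TMR-labelled acetyl-p53-derived 20-mer peptide and 120 μM βNAD+ in Tris-acetate pH 8 buffer with DTT and BSA. Formic acid stop; MS quantifies acetylated vs deacetylated peptide. EC1.5 = concentration giving 150% activation versus DMSO.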

| % Fold Act. (percent maximum fold activation) | EC1.5 (concentration of test compound that results in 150% activation of SIRT1) | SMILES |
| --- | --- | --- |
| A (Fold activation >200%) | A (EC1.5<1.0 uM) | O=C(Nc1cccc2ccc(-c3cccc(N4CCOCC4)c3)nc12)c1cscn1 [Compound 200] |
| A (Fold activation >200%) | A (EC1.5<1.0 uM) | O=C(Nc1cccc(OCC(O)CO)c1)c1cccc2ccc(-c3cccc(OC(F)(F)F)c3)nc12 (stereo not shown) [Compound 152] |
| A (Fold activation >200%) | B (EC1.5 1-25 uM) | O=C(Nc1ccccc1)c1cccc2ccc(-c3cccc(C(F)(F)F)c3)nc12 [Compound 10] |
| A (Fold activation >200%) | A (EC1.5<1.0 uM) | Cn1ccnc1C(=O)Nc1cccc2ccc(-c3cccc(C(F)(F)F)c3)nc12 [Compound 222] |
| A (Fold activation >200%) | A (EC1.5<1.0 uM) | O=C(Nc1cccnc1)c1cccc2ccc(-c3cccc(N4CCOCC4)c3)nc12 [Compound 110] |
| – | C (EC1.5>25 uM) | Cc1noc(C)c1NC(=O)c1cccc2ccc(-c3cccc(C(F)(F)F)c3)nc12 [Compound 50] |
| – | C (EC1.5>25 uM) | O=C(Nc1cccc2ccc(-c3ccc(F)c(C(F)(F)F)c3)nc12)c1cscn1 [Compound 158] |
| A (Fold activation >200%) | B (EC1.5 1-25 uM) | O=C(Nc1cc[nH]n1)c1cccc2ccc(-c3cccc(C(F)(F)F)c3)nc12 [Compound 34] |
| B (Fold Activation <200%) | A (EC1.5<1.0 uM) | O=C(Nc1cccc2ccc(-c3cccnc3)nc12)c1cnccn1 [Compound 142] |
| B (Fold Activation <200%) | C (EC1.5>25 uM) | O=C(Nc1ccccc1)c1cccc2ccc(-c3ccccc3)nc12 [Compound 9] |
| B (Fold Activation <200%) | A (EC1.5<1.0 uM) | O=C(Nc1cccc2ccc(-c3ccc4c(c3)OCO4)nc12)c1cscn1 [Compound 107] |
| A (Fold activation >200%) | B (EC1.5 1-25 uM) | Cc1nc(NC(=O)c2cccc3ccc(-c4cccnc4)nc23)sc1C [Compound 226] |
| A (Fold activation >200%) | A (EC1.5<1.0 uM) | O=C(Nc1ncc(CN2CCOCC2)s1)c1cccc2ccc(-c3cccc(OC(F)(F)F)c3)nc12 [Compound 189] |
| A (Fold activation >200%) | A (EC1.5<1.0 uM) | O=C(Nc1cccc(CN2CCCC2)n1)c1cccc2ccc(-c3cccc(C(F)F)c3)nc12 [Compound 288] |
| – | C (EC1.5>25 uM) | O=C(Nc1cnccn1)c1cccc2ccc(-c3cccnc3)nc12 [Compound 181] |
| – | C (EC1.5>25 uM) | O=C(Nc1cccc2ccc(-c3cccc(OC(F)(F)F)c3)nc12)c1ccc(F)cc1 [Compound 22] |
| A (Fold activation >200%) | A (EC1.5<1.0 uM) | Cc1csc(NC(=O)c2cccc3cnc(-c4cccc(N5CCOCC5)c4)nc23)n1 [Compound 313] |
| A (Fold activation >200%) | A (EC1.5<1.0 uM) | O=C(Nc1ccccn1)c1cccc2ccc(-c3cccc(N4CCOCC4)c3)nc12 [Compound 109] |

| % Fold Act. (percent maximum fold activation) | EC1.5 (concentration of test compound that results in 150% activation of SIRT1) | SMILES |
| --- | --- | --- |
| B (Fold Activation <200%) | A (EC1.5<1.0 uM) | O=C(Nc1cnccn1)c1cccc2ccc(-c3ccccc3)nc12 [Compound 15] |
| – | C (EC1.5>25 uM) | O=C(NC1CCCC1)c1cccc2ccc(-c3cccc(C(F)(F)F)c3)nc12 [Compound 40] |
| A (Fold activation >200%) | A (EC1.5<1.0 uM) | O=C(Nc1cccnc1)Nc1cccc2ccc(-c3cccc(OC(F)(F)F)c3)nc12 [Compound 47] |
| A (Fold activation >200%) | A (EC1.5<1.0 uM) | Cc1cc(NC(=O)c2cccc3ccc(-c4cccc(N5CCOCC5)c4)nc23)sn1 [Compound 253] |
| – | C (EC1.5>25 uM) | O=C(Nc1nccs1)c1ccc(F)c2ccc(-c3cccc(C(F)(F)F)c3)nc12 [Compound 66] |
| – | C (EC1.5>25 uM) | O=C(Nc1cccc2ccc(-c3cc(F)cc(C(F)(F)F)c3)nc12)c1ccccc1 [Compound 153] |
| B (Fold Activation <200%) | A (EC1.5<1.0 uM) | CN(C)c1cccc(C(=O)Nc2cccc3ccc(-c4cccc(C(F)(F)F)c4)nc23)c1 [Compound 215] |
| A (Fold activation >200%) | A (EC1.5<1.0 uM) | O=C(Nc1cccnc1)c1cccc2ccc(-c3cccc(C(F)(F)F)c3)nc12 [Compound 31] |
| A (Fold activation >200%) | B (EC1.5 1-25 uM) | O=C(Nc1cccc2ccc(-c3cccnc3)nc12)c1cccc(OCCN2CCOCC2)c1 [Compound 317] |
| – | C (EC1.5>25 uM) | FC(F)(F)Oc1cccc(-c2ccc3cccc(NCc4nccs4)c3n2)c1 [Compound 140] |
| – | C (EC1.5>25 uM) | O=C(Nc1nccs1)c1cccc2ncc(-c3cccc(OC(F)(F)F)c3)nc12 [Compound 125] |
| – | C (EC1.5>25 uM) | O=C(Nc1ccncn1)c1cccc2cnc(-c3cccnc3)nc12 [Compound 296] |
| B (Fold Activation <200%) | A (EC1.5<1.0 uM) | O=C(Nc1nccs1)c1cccc2ccc(-c3cccc(OC(F)(F)F)c3)nc12 [Compound 14] |
| – | C (EC1.5>25 uM) | O=C(Nc1cccc2ccc(-c3ccc(F)c(C(F)(F)F)c3)nc12)c1ccncc1 [Compound 161] |
| – | C (EC1.5>25 uM) | O=C(Nc1cccc2ccc(-c3cccc(OC(F)(F)F)c3)nc12)c1cnc2ccccc2n1 [Compound 23] |
| A (Fold activation >200%) | A (EC1.5<1.0 uM) | O=C(Nc1ccc(CN2CCOCC2)nc1)c1cccc2ccc(-c3cccc(C(F)F)c3)nc12 [Compound 289] |
| A (Fold activation >200%) | A (EC1.5<1.0 uM) | O=C(Nc1ccc(F)cn1)c1cccc2ccc(-c3cccc(N4CCOCC4)c3)nc12 [Compound 277] |
